{"source": "ChEMBL document CHEMBL1201862", "about": "“PubChem BioAssay data set” (2004)", "key": {"[1]": {"assay": "Counterscreen for IDE inhibitors: Luminescence-based cell-based high throughput dose response assay to identify compounds that are cytotoxic to HEK cells. [Related pubchem assays: 434962 (Primary screen (IDE inhibitors in singlicate)), 449730 (Counterscreen (Cytotoxicity in triplicate)), 435028 (Confirmation (IDE inhibitors in triplicate)) …", "type": "functional", "conditions": "HEK293"}, "Large T antigen": {"target": "Large T antigen (Simian virus 40, UniProt P03070)", "sequence (P03070 whole entry)": "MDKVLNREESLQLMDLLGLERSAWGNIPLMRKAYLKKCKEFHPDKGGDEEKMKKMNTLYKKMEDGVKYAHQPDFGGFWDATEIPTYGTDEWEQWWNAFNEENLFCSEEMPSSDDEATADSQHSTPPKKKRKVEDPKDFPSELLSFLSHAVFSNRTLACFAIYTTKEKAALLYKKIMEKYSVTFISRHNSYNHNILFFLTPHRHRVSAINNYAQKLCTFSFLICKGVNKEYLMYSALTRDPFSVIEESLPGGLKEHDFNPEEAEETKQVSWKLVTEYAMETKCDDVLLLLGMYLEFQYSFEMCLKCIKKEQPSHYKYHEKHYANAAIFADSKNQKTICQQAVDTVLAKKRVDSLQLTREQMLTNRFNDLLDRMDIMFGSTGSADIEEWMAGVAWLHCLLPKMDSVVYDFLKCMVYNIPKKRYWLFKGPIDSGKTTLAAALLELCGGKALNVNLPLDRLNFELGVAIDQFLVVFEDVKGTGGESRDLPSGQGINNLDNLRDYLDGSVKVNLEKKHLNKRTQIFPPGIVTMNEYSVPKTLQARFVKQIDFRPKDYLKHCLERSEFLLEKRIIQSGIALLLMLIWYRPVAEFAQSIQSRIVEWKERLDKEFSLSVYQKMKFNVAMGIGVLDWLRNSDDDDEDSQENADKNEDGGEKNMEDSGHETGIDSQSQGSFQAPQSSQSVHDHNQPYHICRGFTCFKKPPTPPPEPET", "type": "functional, Betapolyomavirus macacae"}, "Insulin-degrading enzyme": {"target": "T1, Insulin-degrading enzyme (Homo sapiens, UniProt P14735)", "T1 sequence (P14735 whole entry)": "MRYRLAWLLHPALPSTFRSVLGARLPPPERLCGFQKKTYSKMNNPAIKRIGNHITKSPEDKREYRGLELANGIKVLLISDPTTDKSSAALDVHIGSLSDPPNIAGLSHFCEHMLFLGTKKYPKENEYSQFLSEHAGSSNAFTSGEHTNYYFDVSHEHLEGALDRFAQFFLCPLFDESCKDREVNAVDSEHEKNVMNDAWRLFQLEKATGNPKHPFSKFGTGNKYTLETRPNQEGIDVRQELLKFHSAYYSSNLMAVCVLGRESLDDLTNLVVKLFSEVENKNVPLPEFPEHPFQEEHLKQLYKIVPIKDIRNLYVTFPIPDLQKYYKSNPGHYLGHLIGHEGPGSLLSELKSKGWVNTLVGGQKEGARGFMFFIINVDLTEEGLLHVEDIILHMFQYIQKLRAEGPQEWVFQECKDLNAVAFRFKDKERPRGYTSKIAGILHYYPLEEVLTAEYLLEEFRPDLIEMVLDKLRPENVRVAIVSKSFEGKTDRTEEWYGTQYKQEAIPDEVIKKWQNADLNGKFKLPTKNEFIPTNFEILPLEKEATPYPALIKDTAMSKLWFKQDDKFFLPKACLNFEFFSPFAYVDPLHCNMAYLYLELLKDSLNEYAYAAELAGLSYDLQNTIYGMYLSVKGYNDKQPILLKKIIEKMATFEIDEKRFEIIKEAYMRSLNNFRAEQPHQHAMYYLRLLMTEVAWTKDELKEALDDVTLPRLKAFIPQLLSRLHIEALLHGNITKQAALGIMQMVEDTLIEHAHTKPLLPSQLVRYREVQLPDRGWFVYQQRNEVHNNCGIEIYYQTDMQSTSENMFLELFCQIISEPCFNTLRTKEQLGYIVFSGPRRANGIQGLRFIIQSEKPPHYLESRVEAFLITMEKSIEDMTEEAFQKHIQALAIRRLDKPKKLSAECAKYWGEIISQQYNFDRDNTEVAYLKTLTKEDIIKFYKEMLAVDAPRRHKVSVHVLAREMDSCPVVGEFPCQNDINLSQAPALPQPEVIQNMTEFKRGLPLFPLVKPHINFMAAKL", "assay": "Dose Response: Fluorescence polarization-based cell-based high throughput dose response assay for inhibitors of insulin-degrading enzyme (IDE). [Related pubchem assays: 434962 (Primary screen (IDE inhibitors in singlicate)), 449730 (Counterscreen (Cytotoxicity in triplicate)), 435028 (Confirmation (IDE inhibitors in triplicate)), 434984 (Summary …", "type": "functional"}, "[2]": {"target": "T2, Mannose-6-phosphate isomerase (Homo sapiens, UniProt P34949)", "T2 sequence (P34949 whole entry)": "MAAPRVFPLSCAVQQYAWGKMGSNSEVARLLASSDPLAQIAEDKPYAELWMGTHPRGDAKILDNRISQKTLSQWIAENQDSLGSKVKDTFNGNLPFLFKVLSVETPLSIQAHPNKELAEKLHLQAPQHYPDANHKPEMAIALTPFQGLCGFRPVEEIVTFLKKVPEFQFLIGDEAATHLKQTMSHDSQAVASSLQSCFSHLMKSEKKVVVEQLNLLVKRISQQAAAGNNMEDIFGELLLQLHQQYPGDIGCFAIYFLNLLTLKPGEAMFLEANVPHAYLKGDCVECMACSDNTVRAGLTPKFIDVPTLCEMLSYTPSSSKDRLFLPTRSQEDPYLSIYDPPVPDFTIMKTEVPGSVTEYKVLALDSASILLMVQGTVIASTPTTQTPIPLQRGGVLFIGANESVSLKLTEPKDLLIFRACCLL", "assay": "PMI enzyme inhibitors, confirmation, biochemical, fluorescence intensity (AID 1535)"}, "Vero": {"tested_on": "Vero", "assay": "Vero cell cytotoxicity, cytotoxicity control for flavivirus capping enzyme inhibitors (AID 588742)", "type": "functional", "conditions": "Chlorocebus sabaeus"}, "Orexin receptor type 2 [3]": {"target": "T3, Orexin receptor type 2 (Homo sapiens, UniProt O43614)", "T3 sequence (O43614 whole entry)": "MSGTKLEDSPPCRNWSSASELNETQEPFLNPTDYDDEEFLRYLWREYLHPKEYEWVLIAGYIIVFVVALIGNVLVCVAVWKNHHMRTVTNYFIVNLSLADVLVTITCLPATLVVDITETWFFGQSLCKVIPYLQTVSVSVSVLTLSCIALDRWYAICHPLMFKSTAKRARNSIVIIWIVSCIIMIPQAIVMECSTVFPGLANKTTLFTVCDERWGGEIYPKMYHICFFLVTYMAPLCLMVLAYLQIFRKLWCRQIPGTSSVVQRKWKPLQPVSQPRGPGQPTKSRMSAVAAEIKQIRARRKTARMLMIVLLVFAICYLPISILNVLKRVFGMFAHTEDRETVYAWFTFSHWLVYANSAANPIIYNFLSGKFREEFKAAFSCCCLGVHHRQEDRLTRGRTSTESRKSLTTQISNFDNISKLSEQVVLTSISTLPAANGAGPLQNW", "assay": "Counterscreen assay for antagonists of the orexin 1 receptor (OX1R; HCRTR1): Fluorescence-based cell-based dose response assay for antagonists of the orexin 2 receptor (OX2R; HCRTR2), run by assay provider.", "type": "functional"}, "[4]": {"target": "T4, Alkaline phosphatase, tissue-nonspecific isozyme (Homo sapiens, UniProt P05186)", "T4 sequence (P05186 whole entry)": "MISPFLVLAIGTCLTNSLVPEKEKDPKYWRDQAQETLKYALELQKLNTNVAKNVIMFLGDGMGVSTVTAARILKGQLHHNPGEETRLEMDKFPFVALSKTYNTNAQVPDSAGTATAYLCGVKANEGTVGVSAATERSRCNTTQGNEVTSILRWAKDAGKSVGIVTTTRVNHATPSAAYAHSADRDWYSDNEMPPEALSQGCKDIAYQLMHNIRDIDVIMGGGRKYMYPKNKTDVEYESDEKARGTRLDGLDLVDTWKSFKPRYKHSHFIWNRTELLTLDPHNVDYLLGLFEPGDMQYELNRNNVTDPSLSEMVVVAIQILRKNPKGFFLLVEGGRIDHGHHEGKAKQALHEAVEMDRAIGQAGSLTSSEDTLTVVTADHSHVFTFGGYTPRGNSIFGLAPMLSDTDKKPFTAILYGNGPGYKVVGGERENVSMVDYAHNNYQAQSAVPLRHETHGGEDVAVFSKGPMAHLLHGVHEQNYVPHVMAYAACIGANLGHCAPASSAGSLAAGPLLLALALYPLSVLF", "assay": "human TNAP enzyme inhibitors, SAR follow-up, biochemical, luminescent, dose response (AID 1056)"}, "Genome polyprotein": {"target": "Genome polyprotein (dengue virus type 2, UniProt P29990)", "assay": "Dengue-2 NS5 methyltransferase inhibitors, primary screen, biochemical, confirmation dose response (AID 588689)", "type": "functional"}, "[5]": {"target": "Endoplasmic reticulum aminopeptidase 1 (Homo sapiens, UniProt Q9NZ08)", "sequence (Q9NZ08 whole entry)": "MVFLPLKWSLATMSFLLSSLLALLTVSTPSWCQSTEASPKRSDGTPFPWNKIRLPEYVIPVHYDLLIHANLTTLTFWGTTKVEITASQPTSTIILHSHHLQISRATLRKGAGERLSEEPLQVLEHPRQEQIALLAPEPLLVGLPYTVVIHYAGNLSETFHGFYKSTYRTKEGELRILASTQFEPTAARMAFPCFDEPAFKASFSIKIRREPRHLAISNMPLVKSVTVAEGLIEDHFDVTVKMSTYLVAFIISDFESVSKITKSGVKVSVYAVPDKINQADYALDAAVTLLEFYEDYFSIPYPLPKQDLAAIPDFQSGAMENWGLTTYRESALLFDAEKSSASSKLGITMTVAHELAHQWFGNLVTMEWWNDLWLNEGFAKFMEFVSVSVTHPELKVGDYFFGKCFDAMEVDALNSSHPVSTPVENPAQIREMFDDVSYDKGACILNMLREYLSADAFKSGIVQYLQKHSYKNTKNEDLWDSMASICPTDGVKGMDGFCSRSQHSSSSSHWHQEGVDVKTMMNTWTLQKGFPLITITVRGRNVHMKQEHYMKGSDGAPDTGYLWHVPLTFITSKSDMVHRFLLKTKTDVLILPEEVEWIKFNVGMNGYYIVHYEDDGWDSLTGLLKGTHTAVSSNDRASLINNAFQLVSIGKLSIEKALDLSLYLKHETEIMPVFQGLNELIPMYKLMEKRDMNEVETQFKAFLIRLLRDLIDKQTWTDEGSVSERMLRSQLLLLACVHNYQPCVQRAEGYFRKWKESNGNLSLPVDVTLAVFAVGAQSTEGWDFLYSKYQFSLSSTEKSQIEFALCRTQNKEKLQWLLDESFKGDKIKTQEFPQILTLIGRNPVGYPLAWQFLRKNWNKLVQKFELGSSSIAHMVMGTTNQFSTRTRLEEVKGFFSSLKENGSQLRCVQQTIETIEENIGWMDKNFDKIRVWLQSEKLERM", "assay": "ERAP1 aminopeptidase inhibitors, dose response, biochemical, cherry-pick, set 2, plate reader (AID 743314)"}, "[6]": {"target": "FAD-linked sulfhydryl oxidase ALR (Homo sapiens, UniProt P55789)", "sequence (P55789 whole entry)": "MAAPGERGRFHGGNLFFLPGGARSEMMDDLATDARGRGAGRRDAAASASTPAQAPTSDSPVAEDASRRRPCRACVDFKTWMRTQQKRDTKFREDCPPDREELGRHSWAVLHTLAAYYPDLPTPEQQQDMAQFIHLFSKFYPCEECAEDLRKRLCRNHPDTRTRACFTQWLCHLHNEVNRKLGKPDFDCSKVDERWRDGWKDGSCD", "assay": "inhibitors of human ALR sulfhydryl oxidase, dose response, biochemical, H2O2 detection, luminescence, cherry-pick (AID 493248)"}, "[7]": {"target": "Glucose-6-phosphate 1-dehydrogenase (Homo sapiens, UniProt P11413)", "sequence (P11413 whole entry)": "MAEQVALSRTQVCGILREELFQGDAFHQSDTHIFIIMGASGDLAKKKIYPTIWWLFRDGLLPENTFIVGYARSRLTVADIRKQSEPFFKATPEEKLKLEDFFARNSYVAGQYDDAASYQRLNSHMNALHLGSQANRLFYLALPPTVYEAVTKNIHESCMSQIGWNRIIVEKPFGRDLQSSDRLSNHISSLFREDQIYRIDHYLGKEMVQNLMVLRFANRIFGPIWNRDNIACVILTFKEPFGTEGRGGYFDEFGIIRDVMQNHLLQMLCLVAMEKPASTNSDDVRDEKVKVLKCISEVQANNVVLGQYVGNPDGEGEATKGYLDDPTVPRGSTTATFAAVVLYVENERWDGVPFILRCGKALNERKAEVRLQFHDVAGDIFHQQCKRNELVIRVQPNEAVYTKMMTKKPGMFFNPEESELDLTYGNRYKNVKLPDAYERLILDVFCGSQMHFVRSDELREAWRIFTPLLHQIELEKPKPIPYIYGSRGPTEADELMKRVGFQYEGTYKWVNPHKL", "assay": "human G6PD enzyme inhibitors, dose response, selectivity assay for P. falciparum G6PD inhibitor project, biochemical, fluorescence (AID 504792)", "type": "functional"}, "Phosphomannomutase 2": {"target": "T5, Phosphomannomutase 2 (Homo sapiens, UniProt O15305)", "T5 sequence (O15305 whole entry)": "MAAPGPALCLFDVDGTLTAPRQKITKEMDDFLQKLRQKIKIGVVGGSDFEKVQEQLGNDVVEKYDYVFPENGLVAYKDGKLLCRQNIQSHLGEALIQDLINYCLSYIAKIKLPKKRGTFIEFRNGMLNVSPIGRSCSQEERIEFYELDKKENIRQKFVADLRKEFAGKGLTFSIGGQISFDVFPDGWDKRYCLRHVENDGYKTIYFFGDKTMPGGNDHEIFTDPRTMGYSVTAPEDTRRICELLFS", "assay": "Counter screen SAR assay for PMM2 inhibitors via a fluorescence intensity assay. [Related pubchem assays (depositor defined):AID1545, AID1574]"}, "[8]": {"target": "DNA dC->dU-editing enzyme APOBEC-3A (Homo sapiens, UniProt P31941)", "sequence (P31941 whole entry)": "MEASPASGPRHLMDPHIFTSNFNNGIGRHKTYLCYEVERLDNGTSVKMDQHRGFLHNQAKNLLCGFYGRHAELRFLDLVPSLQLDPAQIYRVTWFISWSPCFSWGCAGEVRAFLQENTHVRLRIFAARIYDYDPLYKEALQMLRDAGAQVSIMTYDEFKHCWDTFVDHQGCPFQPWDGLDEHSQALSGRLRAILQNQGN", "assay": "APOBEC3A DNA deaminase inhibitors, dose response, biochemical (AID 504722)", "type": "functional"}, "[9]": {"target": "DNA dC->dU-editing enzyme APOBEC-3G (Homo sapiens, UniProt Q9HC16)", "assay": "Dose Response confirmation of small molecule APOBEC3G DNA Deaminase Inhibitors via a fluorescence-based single-stranded DNA deaminase assay. [Related pubchem assays (depositor defined):AID493012, AID493028]", "type": "functional"}, "[10]": {"target": "Phosphoethanolamine/phosphocholine phosphatase (Homo sapiens, UniProt Q8TCT1)", "assay": "SAR assay for compounds that inhibit PHOSPHO1. [Related pubchem assays (depositor defined):AID1545, AID1565, AID1574]"}, "Orexin receptor type 2 [11]": {"target": "T3, Orexin receptor type 2", "assay": "Counterscreen assay for antagonists of the orexin 1 receptor (OX1R; HCRTR1): Homogeneous Time Resolved Fluorescence (HTRF)-based cell-based dose response assay for antagonists of the orexin 2 receptor (OX2R; HCRTR2), run by assay provider.", "type": "functional"}, "[12]": {"target": "DNA (cytosine-5)-methyltransferase 1 (Homo sapiens, UniProt P26358)", "sequence (P26358 whole entry)": "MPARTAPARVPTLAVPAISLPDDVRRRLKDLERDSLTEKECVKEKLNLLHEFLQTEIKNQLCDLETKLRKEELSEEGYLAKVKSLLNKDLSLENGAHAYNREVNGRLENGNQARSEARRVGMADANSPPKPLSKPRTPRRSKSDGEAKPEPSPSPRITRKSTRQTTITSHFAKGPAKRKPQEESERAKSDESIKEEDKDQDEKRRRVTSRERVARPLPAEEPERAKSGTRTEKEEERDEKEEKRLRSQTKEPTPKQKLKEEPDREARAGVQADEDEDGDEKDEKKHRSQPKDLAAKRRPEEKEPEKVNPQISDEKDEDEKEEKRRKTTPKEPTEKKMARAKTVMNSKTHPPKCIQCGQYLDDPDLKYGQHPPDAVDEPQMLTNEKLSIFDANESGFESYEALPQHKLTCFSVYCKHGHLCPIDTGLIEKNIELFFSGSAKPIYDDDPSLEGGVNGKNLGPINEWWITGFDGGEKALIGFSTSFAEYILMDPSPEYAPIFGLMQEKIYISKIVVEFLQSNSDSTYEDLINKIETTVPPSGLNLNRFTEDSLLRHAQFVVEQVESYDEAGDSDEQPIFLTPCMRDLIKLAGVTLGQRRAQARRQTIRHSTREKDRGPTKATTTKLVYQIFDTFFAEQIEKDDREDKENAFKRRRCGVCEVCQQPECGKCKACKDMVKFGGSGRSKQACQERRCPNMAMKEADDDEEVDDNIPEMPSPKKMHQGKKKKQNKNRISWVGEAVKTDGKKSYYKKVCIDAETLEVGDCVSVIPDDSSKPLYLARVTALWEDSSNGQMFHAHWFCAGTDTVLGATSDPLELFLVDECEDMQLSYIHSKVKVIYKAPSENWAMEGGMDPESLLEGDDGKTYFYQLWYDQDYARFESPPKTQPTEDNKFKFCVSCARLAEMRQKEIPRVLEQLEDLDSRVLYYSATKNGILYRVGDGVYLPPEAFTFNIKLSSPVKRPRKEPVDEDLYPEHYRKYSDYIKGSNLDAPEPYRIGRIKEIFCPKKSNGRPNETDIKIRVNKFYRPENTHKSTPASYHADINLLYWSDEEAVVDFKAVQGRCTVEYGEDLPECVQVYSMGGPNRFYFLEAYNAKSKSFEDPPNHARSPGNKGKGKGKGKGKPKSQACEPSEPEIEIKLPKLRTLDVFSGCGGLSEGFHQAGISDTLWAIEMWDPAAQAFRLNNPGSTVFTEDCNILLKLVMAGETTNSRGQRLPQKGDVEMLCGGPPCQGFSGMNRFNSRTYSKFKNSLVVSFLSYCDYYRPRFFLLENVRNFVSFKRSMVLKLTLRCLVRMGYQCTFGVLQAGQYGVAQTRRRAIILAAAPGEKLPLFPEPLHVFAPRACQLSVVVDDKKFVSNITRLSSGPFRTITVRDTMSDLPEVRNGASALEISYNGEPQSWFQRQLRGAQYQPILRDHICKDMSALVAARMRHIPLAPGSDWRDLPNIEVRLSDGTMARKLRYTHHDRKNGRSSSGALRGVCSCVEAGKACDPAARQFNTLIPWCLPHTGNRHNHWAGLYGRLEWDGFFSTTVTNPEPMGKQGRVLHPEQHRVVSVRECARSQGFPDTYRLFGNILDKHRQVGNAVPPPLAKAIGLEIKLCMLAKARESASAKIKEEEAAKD", "assay": "DNMT1 methyltransferase inhibitors, confirmation, biochemical, fluorescent molecular beacon (AID 602386)", "type": "functional"}, "Caspase-6": {"target": "Caspase-6 (Homo sapiens, UniProt P55212)", "sequence (P55212 24-179 limits assumed)": "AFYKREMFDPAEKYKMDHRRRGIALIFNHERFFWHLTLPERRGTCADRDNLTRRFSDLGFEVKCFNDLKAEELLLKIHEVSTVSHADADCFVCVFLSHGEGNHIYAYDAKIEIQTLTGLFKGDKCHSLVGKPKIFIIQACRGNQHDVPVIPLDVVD", "sequence (P55212 194-293 limits assumed)": "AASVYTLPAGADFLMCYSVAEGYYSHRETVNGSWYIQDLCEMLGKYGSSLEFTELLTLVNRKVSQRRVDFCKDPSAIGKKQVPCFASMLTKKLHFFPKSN", "assay": "human caspase-6 inhibitors, dose response, biochemical, VEID-R110 fluorescence, cherry-pick (AID 720632)"}, "Leucine aminopeptidase": {"target": "T6, Leucine aminopeptidase (Plasmodium falciparum 3D7, UniProt Q8IL11)", "T6 sequence (Q8IL11 whole entry)": "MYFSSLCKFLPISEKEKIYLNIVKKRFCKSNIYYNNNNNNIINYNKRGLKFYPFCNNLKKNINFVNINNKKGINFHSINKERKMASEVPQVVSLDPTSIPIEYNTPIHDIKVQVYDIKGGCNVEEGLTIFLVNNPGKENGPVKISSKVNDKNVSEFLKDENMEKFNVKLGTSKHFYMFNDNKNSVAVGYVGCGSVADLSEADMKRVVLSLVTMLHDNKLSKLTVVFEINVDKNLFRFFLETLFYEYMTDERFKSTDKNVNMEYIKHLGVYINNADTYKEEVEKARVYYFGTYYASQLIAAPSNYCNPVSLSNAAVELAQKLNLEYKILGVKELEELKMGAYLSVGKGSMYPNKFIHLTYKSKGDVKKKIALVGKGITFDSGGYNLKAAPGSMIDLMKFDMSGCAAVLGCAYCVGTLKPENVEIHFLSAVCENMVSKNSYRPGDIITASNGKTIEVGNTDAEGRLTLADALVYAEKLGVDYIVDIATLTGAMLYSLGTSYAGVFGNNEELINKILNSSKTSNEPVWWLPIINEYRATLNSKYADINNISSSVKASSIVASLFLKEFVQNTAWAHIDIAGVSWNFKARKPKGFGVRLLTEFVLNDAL", "assay": "P. falciparum M17LAP inhibitors, primary screen, biochemical, fluorogenic H-Leu-NHMec substrate, 1536-well (AID 1619)", "type": "functional"}, "Phospholipase A2": {"target": "Phospholipase A2 (Homo sapiens, UniProt P04054)", "sequence (P04054 whole entry)": "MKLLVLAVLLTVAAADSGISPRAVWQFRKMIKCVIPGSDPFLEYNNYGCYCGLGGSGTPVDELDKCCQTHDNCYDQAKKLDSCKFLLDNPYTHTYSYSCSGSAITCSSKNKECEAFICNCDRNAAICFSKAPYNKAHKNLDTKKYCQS", "type": "functional"}, "Cysteine protease ATG4B": {"target": "Cysteine protease ATG4B (Homo sapiens, UniProt Q9Y4P1)", "sequence (Q9Y4P1 whole entry)": "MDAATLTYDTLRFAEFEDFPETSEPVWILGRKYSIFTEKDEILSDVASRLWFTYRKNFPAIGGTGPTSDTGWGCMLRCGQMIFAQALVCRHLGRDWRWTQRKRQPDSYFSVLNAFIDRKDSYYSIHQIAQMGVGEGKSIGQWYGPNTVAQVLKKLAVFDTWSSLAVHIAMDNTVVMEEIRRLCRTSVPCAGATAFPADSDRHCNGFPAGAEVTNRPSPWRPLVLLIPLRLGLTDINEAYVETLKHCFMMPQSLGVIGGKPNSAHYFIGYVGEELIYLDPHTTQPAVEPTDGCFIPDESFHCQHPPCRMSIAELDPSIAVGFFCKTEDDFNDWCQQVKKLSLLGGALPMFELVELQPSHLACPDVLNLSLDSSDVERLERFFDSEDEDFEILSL", "type": "functional"}}, "note": "Active and inactive are the calls of the source.", "data": [{"smiles": "O=C(O)c1ccccc1NS(=O)(=O)c1cccc(-n2sc3ccccc3c2=O)c1", "values": [{"measurement": "IC50", "setting": "[1]", "result": "34.8 µM (not active)"}, {"measurement": "IC50", "setting": "Large T antigen", "result": "13.2 µM (active)"}, {"measurement": "IC50", "setting": "Insulin-degrading enzyme", "result": "2.1 µM (active)"}, {"measurement": "IC50", "setting": "[2]", "result": "0.707 µM (active)"}, {"measurement": "CC50", "setting": "Vero", "result": "> 40 µM (active)"}, {"measurement": "IC50", "setting": "Orexin receptor type 2 [3]", "result": "6.8 µM (active)"}, {"measurement": "IC50", "setting": "[4]", "result": "> 100 µM (inactive)"}, {"measurement": "IC50", "setting": "Genome polyprotein", "result": "46.4 µM (active)"}, {"measurement": "AC50", "setting": "[5]", "result": "0.73 µM (active)"}, {"measurement": "AC50", "setting": "[6]", "result": "0.243 µM (active)"}, {"measurement": "IC50", "setting": "[7]", "result": "17.6 µM (active)"}, {"measurement": "IC50", "setting": "Phosphomannomutase 2", "result": "5.15 µM (active)"}, {"measurement": "IC50", "setting": "[8]", "result": "> 100 µM (inactive)"}, {"measurement": "IC50", "setting": "[9]", "result": "9.14 µM (active)"}, {"measurement": "IC50", "setting": "[10]", "result": "0.808 µM (active)"}, {"measurement": "IC50", "setting": "Orexin receptor type 2 [11]", "result": "3.45 µM (active)"}]}, {"smiles": "O=C(O)CCc1ccc(S(=O)(=O)Nc2cc(C(F)(F)F)ccc2N2CCCC2)cc1", "values": [{"measurement": "IC50", "setting": "[12]", "result": "11.7 µM (active)"}, {"measurement": "AC50", "setting": "Caspase-6", "result": "38.4 µM (active)"}]}, {"smiles": "CCOc1cc(/C=C2/SC(=O)N(CC(=O)N3CCc4ccccc4C3)C2=O)ccc1OCC(=O)O", "values": [{"measurement": "IC50", "setting": "Leucine aminopeptidase", "result": "10.6 µM (active)"}, {"measurement": "IC50", "setting": "Phospholipase A2", "result": "11 µM (active)"}, {"measurement": "IC50", "setting": "Cysteine protease ATG4B", "result": "15 µM (active)"}]}]}
